Experimental data from US10208081B2, “Bile acid derivatives as FXR/TGR5 agonists and methods of use thereof” (Enanta Pharmaceuticals, Inc., priority 2014, dated 2019).

Molecular target: human FXR (NR1H4) (Homo sapiens (Human), UniProt Q96RI1)
Experiment: Human FXR (NR1H4) Assay (Gal4 promoter driven luciferase reporter, Indigo Bioscience kit IB00601)
Type: cell-based
Conditions: for Efficacy (%): efficacy normalized to CDCA set as 100%; for EC50: potency ranges
Method in brief: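 CHO reporter cells expressing human FXR with Gal4-driven, FXR-responsive luciferase treated with compound doses (0.2% DMSO) for 22 hours at 37° C. Luciferase luminescence then measured as surrogate of FXR activation for potency and efficacy.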

Chain of human FXR (NR1H4) (Q96RI1 whole entry, the tested form may be a part): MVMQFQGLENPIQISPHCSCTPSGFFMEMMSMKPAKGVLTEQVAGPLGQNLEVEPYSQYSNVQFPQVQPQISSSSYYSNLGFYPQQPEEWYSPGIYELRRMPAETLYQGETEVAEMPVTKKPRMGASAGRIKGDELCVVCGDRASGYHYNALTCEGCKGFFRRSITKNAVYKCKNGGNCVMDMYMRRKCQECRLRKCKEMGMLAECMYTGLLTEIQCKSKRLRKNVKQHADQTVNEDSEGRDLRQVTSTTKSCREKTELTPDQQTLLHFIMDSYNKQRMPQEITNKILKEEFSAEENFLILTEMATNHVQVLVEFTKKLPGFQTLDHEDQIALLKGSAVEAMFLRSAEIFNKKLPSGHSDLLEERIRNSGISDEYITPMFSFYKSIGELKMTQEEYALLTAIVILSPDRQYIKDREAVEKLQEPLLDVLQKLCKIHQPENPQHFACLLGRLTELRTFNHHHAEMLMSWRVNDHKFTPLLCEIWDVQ

SMILES | Efficacy (%) | EC50
CC[C@H]1[C@@H](O)[C@@H]2[C@H](CC[C@]3(C)[C@@H]([C@H](C)CCNC(=O)NS(=O)(=O)c4ccc(OC)cc4)CC[C@@H]23)[C@@]2(C)CC[C@@H](O)C[C@@H]12 [Example 15] | 337% | < 0.1 µM
CC[C@H]1[C@@H](O)[C@@H]2[C@H](CC[C@]3(C)[C@@H]([C@H](C)CCNC(=O)NS(=O)(=O)c4cccc(F)c4)CC[C@@H]23)[C@@]2(C)CC[C@@H](O)C[C@@H]12 [Example 51] | 319% | < 0.1 µM
CC[C@H]1[C@@H](O)[C@@H]2[C@H](CC[C@]3(C)[C@@H]([C@H](C)CCNS(=O)(=O)c4cccc(N5CCCCC5)c4)CC[C@@H]23)[C@@]2(C)CC[C@@H](O)C[C@@H]12 [Example 133] | 80% | > 10 µM
CC[C@H]1[C@@H](O)[C@@H]2[C@H](CC[C@]3(C)[C@@H]([C@H](C)CCNS(=O)(=O)CC(=O)O)CC[C@@H]23)[C@@]2(C)CC[C@@H](O)C[C@@H]12 [Example 132] | 7% | 1 to 10 µM
CC[C@H]1[C@@H](O)[C@@H]2[C@H](CC[C@]3(C)[C@@H]([C@H](C)CCNC(=O)NS(=O)(=O)NC)CC[C@@H]23)[C@@]2(C)CC[C@@H](OC(=O)C(F)(F)F)C[C@@H]12 [Example 126] | 238% | 1 to 10 µM
CC[C@H]1[C@@H](O)[C@@H]2[C@H](CC[C@]3(C)[C@@H]([C@H](C)CCCNS(=O)(=O)c4ccccc4)CC[C@@H]23)[C@@]2(C)CC[C@@H](O)C[C@@H]12 [Example 10] | 168% | 0.1 to 1 µM
CC[C@H]1[C@@H](O)[C@@H]2[C@H](CC[C@]3(C)[C@@H]([C@H](C)CCNC(=O)NS(=O)(=O)c4ccc(C(=O)O)cc4)CC[C@@H]23)[C@@]2(C)CC[C@@H](O)C[C@@H]12 [Example 120] | 198% | 1 to 10 µM
CC[C@H]1[C@@H](O)[C@@H]2[C@H](CC[C@]3(C)[C@@H]([C@H](C)CCNC(=O)NS(=O)(=O)N4CCCCC4)CC[C@@H]23)[C@@]2(C)CC[C@@H](O)C[C@@H]12 [Example 39] | 379% | < 0.1 µM
CC[C@H]1[C@@H](O)[C@@H]2[C@H](CC[C@]3(C)[C@@H]([C@H](C)CNC(=O)NS(=O)(=O)c4ccccc4)CC[C@@H]23)[C@@]2(C)CC[C@@H](O)C[C@@H]12 [Example 31] | 305% | 0.1 to 1 µM
CC[C@H]1[C@@H](O)[C@@H]2[C@H](CC[C@]3(C)[C@@H]([C@H](C)CCNC(=O)NS(=O)(=O)c4cccc(Cl)c4)CC[C@@H]23)[C@@]2(C)CC[C@@H](O)C[C@@H]12 [Example 24] | 421% | < 0.1 µM
CC[C@H]1[C@@H](O)[C@@H]2[C@H](CC[C@]3(C)[C@@H]([C@H](C)CCNC(=O)NS(=O)(=O)c4nccs4)CC[C@@H]23)[C@@]2(C)CC[C@@H](O)C[C@@H]12 [Example 100] | 364% | 1 to 10 µM
CC[C@H]1[C@@H](O)[C@@H]2[C@H](CC[C@]3(C)[C@@H]([C@H](C)CCNC(=O)NS(=O)(=O)Nc4ccc(C(C)(C)C)cc4)CC[C@@H]23)[C@@]2(C)CC[C@@H](O)C[C@@H]12 [Example 105] | 322% | 0.1 to 1 µM
CC[C@H]1[C@@H](O)[C@@H]2[C@H](CC[C@]3(C)[C@@H]([C@H](C)CCNC(=O)NS(=O)(=O)N4CCC(C)(C)CC4)CC[C@@H]23)[C@@]2(C)CC[C@@H](O)C[C@@H]12 [Example 65] | 498% | < 0.1 µM
CC[C@H]1[C@@H](O)[C@@H]2[C@H](CC[C@]3(C)[C@@H]([C@H](C)CCNS(=O)(=O)c4ccc(C(C)(C)C)s4)CC[C@@H]23)[C@@]2(C)CC[C@@H](O)C[C@@H]12 [Example 134] | 19% | 
CC[C@H]1[C@@H](O)[C@@H]2[C@H](CC[C@]3(C)[C@@H]([C@H](C)CCNC(=O)NS(=O)(=O)c4ccc5c(c4)OCO5)CC[C@@H]23)[C@@]2(C)CC[C@@H](O)C[C@@H]12 [Example 23] | 488% | < 0.1 µM
CC[C@H]1[C@@H](O)[C@@H]2[C@H](CC[C@]3(C)[C@@H]([C@H](C)CCNC(=O)NS(C)(=O)=O)CC[C@@H]23)[C@@]2(C)CC[C@@H](O)C[C@@H]12 [Example 6] | 269% | 0.1 to 1 µM

SMILES | Efficacy (%) | EC50
CC[C@H]1[C@@H](O)[C@@H]2[C@H](CC[C@]3(C)[C@@H]([C@H](C)CCNC(=O)NS(=O)(=O)c4ccc(-c5ccccc5)cc4)CC[C@@H]23)[C@@]2(C)CC[C@@H](O)C[C@@H]12 [Example 54] | 273% | < 0.1 µM
CC[C@H]1[C@@H](O)[C@@H]2[C@H](CC[C@]3(C)[C@@H]([C@H](C)CCNC(=O)NS(=O)(=O)c4ccc(C(C)(C)C)s4)CC[C@@H]23)[C@@]2(C)CC[C@@H](O)C[C@@H]12 [Example 111] | 314% | < 0.1 µM
CC[C@H]1[C@@H](O)[C@@H]2[C@H](CC[C@]3(C)[C@@H]([C@H](C)CCNC(=O)NS(=O)(=O)c4ccc(-c5ccno5)cc4C)CC[C@@H]23)[C@@]2(C)CC[C@@H](O)C[C@@H]12 [Example 72] | 384% | 0.1 to 1 µM
CC[C@H]1[C@@H](O)[C@@H]2[C@H](CC[C@]3(C)[C@@H]([C@H](C)CNC(=O)NS(=O)(=O)c4ccc(C5CCCCC5)cc4)CC[C@@H]23)[C@@]2(C)CC[C@@H](O)C[C@@H]12 [Example 113] | 366% | < 0.1 µM
CC[C@H]1[C@@H](O)[C@@H]2[C@H](CC[C@]3(C)[C@@H]([C@H](C)CCNC(=O)NS(=O)(=O)c4ccc(OC(F)(F)F)cc4)CC[C@@H]23)[C@@]2(C)CC[C@@H](O)C[C@@H]12 [Example 2] | 300% | < 0.1 µM
CC[C@H]1[C@@H](O)[C@@H]2[C@H](CC[C@]3(C)[C@@H]([C@H](C)CCNC(=O)NS(=O)(=O)c4cnccn4)CC[C@@H]23)[C@@]2(C)CC[C@@H](O)C[C@@H]12 [Example 64] | 334% | 1 to 10 µM
CC[C@H]1[C@@H](O)[C@@H]2[C@H](CC[C@]3(C)[C@@H]([C@H](C)CCNC(=O)NS(N)(=O)=O)CC[C@@H]23)[C@@]2(C)CC[C@@H](O)C[C@@H]12 [Example 124] | 195% | 1 to 10 µM
CC[C@H]1[C@@H](O)[C@@H]2[C@H](CC[C@]3(C)[C@@H]([C@H](C)CCNC(=O)NS(=O)(=O)C4CCC(C)(C)CC4)CC[C@@H]23)[C@@]2(C)CC[C@@H](O)C[C@@H]12 [Example 101] | 244% | < 0.1 µM
CC[C@H]1[C@@H](O)[C@@H]2[C@H](CC[C@]3(C)[C@@H]([C@H](C)CCNC(=O)NS(=O)(=O)C4CCC(C(C)(C)C)CC4)CC[C@@H]23)[C@@]2(C)CC[C@@H](O)C[C@@H]12 (stereo partly drawn) [Example 88] | 378% | < 0.1 µM
CC[C@H]1[C@@H](O)[C@@H]2[C@H](CC[C@]3(C)[C@@H]([C@H](C)CCCNC(=O)NS(=O)(=O)c4ccc(OC(F)(F)F)cc4)CC[C@@H]23)[C@@]2(C)CC[C@@H](O)C[C@@H]12 [Example 18] | 319% | < 0.1 µM
CC[C@H]1[C@@H](O)[C@@H]2[C@H](CC[C@]3(C)[C@@H]([C@H](C)CCNC(=O)NS(=O)(=O)c4ccc(C5(C(F)(F)F)CC5)cc4)CC[C@@H]23)[C@@]2(C)CC[C@@H](O)C[C@@H]12 [Example 106] | 281% | < 0.1 µM
CC[C@H]1[C@@H](O)[C@@H]2[C@H](CC[C@]3(C)[C@@H]([C@H](C)CCNC(=O)NS(=O)(=O)c4ccc(C(C)(C)C)cc4)CC[C@@H]23)[C@@]2(C)CC[C@@H](O)C[C@@H]12 [Example 3] | 396% | < 0.1 µM
CC[C@H]1[C@@H](O)[C@@H]2[C@H](CC[C@]3(C)[C@@H]([C@H](C)CCNC(=O)NS(=O)(=O)N4CCC5(CC4)COC5)CC[C@@H]23)[C@@]2(C)CC[C@@H](O)C[C@@H]12 [Example 74] | 242% | 0.1 to 1 µM
CC[C@H]1[C@@H](O)[C@@H]2[C@H](CC[C@]3(C)[C@@H]([C@H](C)CCNC(=O)NS(=O)(=O)N4C[C@@H](C)O[C@@H](C)C4)CC[C@@H]23)[C@@]2(C)CC[C@@H](O)C[C@@H]12 [Example 75] | 323% | < 0.1 µM
CC[C@H]1[C@@H](O)[C@@H]2[C@H](CC[C@]3(C)[C@@H]([C@H](C)CCNC(=O)NS(=O)(=O)N4C(C)CCC4C)CC[C@@H]23)[C@@]2(C)CC[C@@H](O)C[C@@H]12 (stereo partly drawn) [Example 98] | 344% | < 0.1 µM
CC[C@H]1[C@@H](O)[C@@H]2[C@H](CC[C@]3(C)[C@@H]([C@H](C)CCNC(=O)NS(=O)(=O)C4CC5CCC4C5)CC[C@@H]23)[C@@]2(C)CC[C@@H](O)C[C@@H]12 (stereo partly drawn) [Example 76] | 290% | < 0.1 µM
